Data published in PubChem BioAssay AID256 (DTP/NCI, 2004).
Values joined by “and” are separate entries in the source; they are usually repeats but may differ in a detail not shown here. Equal entries are not always repeated. Inconclusive results and toxic doses are left out. Non-standard residues stand in square brackets, D forms with d. Residues, ends and D or L forms follow the SMILES beside them. ξ: configuration not given here. *: point of attachment. Cbz = O=C(OCc1ccccc1)*; ξP = O=C(O)C1CCCN1

Tested on: CD2F1 mice, L1210 leukemia ip, survival T/C
Test: NCI In Vivo Anticancer Drug Screen. Data for tumor model L1210 Leukemia (intraperitoneal) in CD2F1 (CDF1) mice
Settings: higher = longer survival
Method in brief: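 Transplantable tumor in mice; compound-treated vs vehicle-treated groups. Read-out = treated/control ratio of the measured endpoint.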

[1] = endpoint: mean survival time, dose: 100.0 mg/kg/injection, schedule: Q01DX009 (ip), vehicle: saline with Tween-80
[2] = endpoint: mean survival time, dose: 100.0 mg/kg/injection, schedule: Q04DX003 (ip), vehicle: saline with Tween-80
[3] = endpoint: mean survival time, dose: 200.0 mg/kg/injection, schedule: Q01DX009 (ip), vehicle: saline with Tween-80
[4] = endpoint: mean survival time, dose: 200.0 mg/kg/injection, schedule: Q04DX003 (ip), vehicle: saline with Tween-80
[5] = endpoint: mean survival time, dose: 400.0 mg/kg/injection, schedule: Q01DX009 (ip), vehicle: saline with Tween-80
[6] = endpoint: mean survival time, dose: 400.0 mg/kg/injection, schedule: Q04DX003 (ip), vehicle: saline with Tween-80
[7] = endpoint: mean survival time, dose: 100.0 mg/kg/injection, schedule: Q04DX003 (ip), vehicle: saline
[8] = endpoint: mean survival time, dose: 200.0 mg/kg/injection, schedule: Q04DX003 (ip), vehicle: saline
[9] = endpoint: mean survival time, dose: 400.0 mg/kg/injection, schedule: Q04DX003 (ip), vehicle: saline
[10] = endpoint: mean survival time, dose: 100.0 mg/kg/injection, schedule: Q01DX001 (ip), vehicle: saline with Tween-80
[11] = endpoint: mean survival time, dose: 200.0 mg/kg/injection, schedule: Q01DX001 (ip), vehicle: saline with Tween-80
[12] = endpoint: mean survival time, dose: 400.0 mg/kg/injection, schedule: Q01DX001 (ip), vehicle: saline with Tween-80

Cc1cc(=S)n(C)c2ccccc12
T/C [1]: 94 % of control
T/C [2]: 93 % of control
T/C [3]: 93 % of control
T/C [4]: 96 % of control
T/C [5]: 98 % of control
T/C [6]: 88 % of control

C[n+]1ccc(CCC(=O)Nc2ccccc2)cc1
T/C [2]: 100 % of control
T/C [4]: 100 % of control

O=C(NO)c1ccncc1
T/C (endpoint: mean survival time, dose: 50.0 mg/kg/injection, schedule: Q01DX001 (ip), vehicle: saline): 106 % of control
T/C (endpoint: mean survival time, dose: 100.0 mg/kg/injection, schedule: Q01DX001 (ip), vehicle: saline): 103 % of control
T/C (endpoint: mean survival time, dose: 100.0 mg/kg/injection, schedule: Q01DX009 (ip), vehicle: saline): 102 % of control
T/C [7]: 91 % of control
T/C (endpoint: mean survival time, dose: 200.0 mg/kg/injection, schedule: Q01DX001 (ip), vehicle: saline): 110 % of control
T/C (endpoint: mean survival time, dose: 200.0 mg/kg/injection, schedule: Q01DX009 (ip), vehicle: saline): 104 % of control
T/C [8]: 94 % of control
T/C (endpoint: mean survival time, dose: 400.0 mg/kg/injection, schedule: Q01DX001 (ip), vehicle: saline): 97 % of control
T/C (endpoint: mean survival time, dose: 400.0 mg/kg/injection, schedule: Q01DX009 (ip), vehicle: saline): 107 % of control
T/C [9]: 94 % of control

CS(=O)(=O)CS(=O)(=O)OCCF
T/C (endpoint: median survival time, dose: 3.12 mg/kg/injection, schedule: Q01DX009 (ip), vehicle: saline): 112 % of control
T/C (endpoint: median survival time, dose: 3.13 mg/kg/injection, schedule: Q01DX009 (ip), vehicle: saline): 119 % of control
T/C (endpoint: median survival time, dose: 12.5 mg/kg/injection, schedule: Q01DX009 (ip), vehicle: saline): 179 % of control and 189 % of control
T/C (endpoint: median survival time, dose: 25.0 mg/kg/injection, schedule: Q01DX009 (ip), vehicle: saline): 182 % of control and 349 % of control

CC(=O)OCC1OC(n2nc(-c3ccccc3)c(=O)n(-c3ccccc3)c2=O)C(OC(C)=O)C(OC(C)=O)C1OC(C)=O (stereo not given)
T/C (endpoint: mean survival time, dose: 3.8 mg/kg/injection, schedule: Q01DX005 (ip), vehicle: water): 96 % of control
T/C (endpoint: mean survival time, dose: 7.5 mg/kg/injection, schedule: Q01DX005 (ip), vehicle: water): 96 % of control
T/C (endpoint: mean survival time, dose: 15.0 mg/kg/injection, schedule: Q01DX005 (ip), vehicle: water): 96 % of control
T/C (endpoint: mean survival time, dose: 30.0 mg/kg/injection, schedule: Q01DX005 (ip), vehicle: water): 101 % of control
T/C (endpoint: mean survival time, dose: 60.0 mg/kg/injection, schedule: Q01DX005 (ip), vehicle: water): 101 % of control

CC(=O)Nc1ccc(CC#N)cc1
T/C (endpoint: mean survival time, dose: 5.0 mg/kg/injection, schedule: Q04DX003 (ip), vehicle: saline sonified): 103 % of control
T/C (endpoint: mean survival time, dose: 10.0 mg/kg/injection, schedule: Q04DX003 (ip), vehicle: saline sonified): 114 % of control
T/C (endpoint: mean survival time, dose: 20.0 mg/kg/injection, schedule: Q04DX003 (ip), vehicle: saline sonified): 94 % of control

O=S(=O)(Nc1cc(S(=O)(=O)c2ccccc2)c(O)c2ccccc12)c1ccccc1
T/C [2]: 96 % of control
T/C [4]: 86 % of control
T/C [6]: 91 % of control

CCCCNC(=S)S
T/C [1]: 100 % of control
T/C [2]: 100 % of control
T/C [3]: 102 % of control
T/C [4]: 92 % of control
T/C [5]: 100 % of control
T/C [6]: 94 % of control

Cc1ccc(N=Nc2ccc(N(C)C)cc2)c2cccnc12
T/C [1]: 104 % of control

O=C(CNC(=O)OCc1ccccc1)NCC(=O)N1CCCC1C(=O)O (stereo not drawn) (Cbz-Gly-Gly-[ξP]-OH)
T/C [7]: 98 % of control
T/C [8]: 96 % of control
T/C [9]: 101 % of control

FC(F)(F)c1cccc(NC2=NCCO2)c1
T/C [10]: 92 % of control
T/C [11]: 93 % of control
T/C [12]: 91 % of control

CNc1cc(=O)[nH]cn1
T/C [10]: 95 % of control
T/C [11]: 100 % of control
T/C [12]: 101 % of control

O=C(Nc1ccccc1)Nc1ccc(N(CCCl)CCCl)cc1
T/C (endpoint: mean survival time, dose: 100.0 mg/kg/injection, schedule: Q01DX001 (ip), vehicle: Klucel (hydroxypropylcellulose) (HPC)): 105 % of control
T/C (endpoint: mean survival time, dose: 200.0 mg/kg/injection, schedule: Q01DX001 (ip), vehicle: Klucel (hydroxypropylcellulose) (HPC)): 108 % of control
T/C (endpoint: mean survival time, dose: 400.0 mg/kg/injection, schedule: Q01DX001 (ip), vehicle: Klucel (hydroxypropylcellulose) (HPC)): 114 % of control

OC1C2CCC(C2)C1C(O)(C(F)(F)Cl)C(F)(F)Cl (stereo not given)
T/C [1]: 97 % of control
T/C [3]: 91 % of control
T/C [5]: 87 % of control
